Experimental findings from patent US20250186503A1, “METHODS AND COMBINATIONS FOR TREATMENT AND T CELL MODULATION” (Juno Therapeutics, Inc., priority 2018, published 2025) are described below.

Holding throughout (type): cell-based, human
The subject of experiment [1] is Granta-519 tumor spheroids. The experiment can be described thus: Granta-519 spheroid tumor growth assay after concurrent treatment during chronic stimulation. From the text:
Averaged measurement of tumor spheroid size at various times following co-culture with CAR-T cells was monitored.
The log 2 fold change compared to control cells (chronically stimulated cells that had not been concurrently treated with immunomodulatory compound) is shown in FIG. 48E. […] The results further support that immunomodulatory compounds during conditions that can promote exhaustion, such as during chronic stimulation, can improve or preserve CAR T cell function and limit, reduce or prevent CAR T cell exhaustion.

Experiment [2] has as its system anti-CD19 CAR-expressing T cells. As to the kind of experiment: Surface marker expression after 4 days anti-idiotypic antibody stimulation. To be noted: for surface markers CD25 and CD69: 4 days, some donor-derived cells, depending on stimulation; for expression of the surrogate marker for CAR expression: anti-idiotypic antibody 0.3 μg/ml; for expression of PD-1: cells generated from at least one donor. As to the method:
Anti-CD19 CAR-expressing T cells compositions (containing CD4+ and CD8+ T cells combined at a 1:1 ratio) were generated substantially as described in Example 14. Approximately 1×10^5 CAR-expressing cells were added to wells of a 96-well plate that had been pre-coated with an anti-idiotypic antibody specific to the scFv of the anti-CD19 CAR-expressing T cells at concentrations of 0, 0.3, 3 and 30 μg/ml. […] Cytokine expression and expression of surface markers of anti-CD19 CAR-expressing T cells were assessed.
CAR-expressing T cells were stained for CD3, CD4, CD8 and the surrogate marker for CAR expression, and also for the following markers: CD25, PD-1, and CD69.

The next experiment relates to anti-CD19 CAR T cells. The experiment can be described thus: RNA-seq of CAR T cells sorted from tumor spheroids, Compound 1 after chronic stimulation. The note with it: 0.1 μM and 1 μM after chronic stimulation. How it is done:
Gene expression analysis of CAR T cells sorted from tumor spheroids 5 days after co-culture was analyzed by RNA sequencing (RNA-seq) on the complementary DNA (cDNA) samples prepared from the RNA isolated from the long-term stimulated CAR-expressing T cells or on CAR-expressing T cells that had not undergone the long-term stimulation. […] Differential locus selection cut off was q<0.05 and absolute log 2 fold change>0.5 for RNA-seq.

The test system of experiment [3] is Raji and Granta-519 tumor cells. The experiment can be described thus: CAR T function against Raji and Granta-519 tumor cells after concurrent treatment during chronic stimulation. Also on record: dose or concentration left out as unconfirmed.
Experiment [4] has as its system anti-CD19 CAR-expressing T cells with K562.CD19 cells. As to the kind of experiment: Serial stimulation of anti-CD19 CAR+ T cells with irradiated K562.CD19 cells (surface markers, cytolytic activity, expansion). The note with it: CD4+ and CD8+ CAR-expressing T cells, all three donors.
Experiment [5] has as its system CD19 directed CAR-expressing T cells. The experiment can be described thus: Antigen-dependent cytokine production by CD19 directed CAR-expressing T cells. The note with it: compared to vehicle control or equimolar concentrations of lenalidomide. From the text:
[…]. […] Data represents the mean+/−S.D. across 3 experiments.

Experiment [6] deals with anti-CD19 CAR-expressing T cells. As to the kind of experiment: 28-day serial stimulation of anti-CD19 CAR-expressing T cells. Also on record: long term product performance: dose or concentration left out as unconfirmed. How it is done:
Cells were counted after each stimulation and cell doublings were calculated. […] Data represents mean+/−S.E.M of triplicated treatments from 3 donors. Each arrow represents a re-stimulation time point. […] Cells were counted after each stimulation and cell doublings were calculated. […] Data represents mean+/−S.E.M of triplicated treatments from three donors. Each arrow represents a re-stimulation time point.

Experiment [7] deals with anti-CD19 CAR-expressing T cells with K562.CD19 cells. The experiment can be described thus: Serial stimulation of anti-CD19 CAR+ T cells with irradiated K562.CD19 cells (surface markers, cytolytic activity, expansion). The note with it: for CD25 and LAG3 expression: day 4, all three donors; for PD-1 expression: day 4 and day 28, both E:T ratios; for cytolytic activity after serial stimulation: day 24; for CCR7 expression: day 28; for cell doublings: 1000 nM. How it is done:
Every 3-4 days (start of each new round), the cells were counted.
Expression of select surface markers was assessed on cells at day 4 (i.e., 4 days after the first stimulation) and day 28 (i.e., 4 days after the seventh stimulation). Specifically, harvested cells were analyzed by flow cytometry for CD3, CD4, CD8 and the surrogate marker for CAR expression, and also for the following surface markers: CD69, CD107a, PD-1, CD25, CD62L, CCR7, CD45RO, CD27, and LAG3.

Another experiment relates to RPMI-8226. As to the kind of experiment: Cytolytic activity against RPMI-8226 after seven days incubation with BCMA-conjugated beads. How it is done: Cytolytic activity of CAR+ T cells after incubation with BCMA-conjugated beads was assessed by incubation with the BCMA-expressing target cell line RPMI-8226, which is a BCMA+multiple myeloma cell line. […] The number of viable cells was normalized to cells at day 0 prior to incubation with the RPMI-8226 target cells.

For the next experiment, the system named is anti-BCMA CAR T cells. As to the kind of experiment: Cytokine production of anti-BCMA CAR T cells at low, medium and high BCMA bead stimulation. As to the method: In another study, recombinant human BCMA-conjugated beads were used to stimulate CAR T cells at various concentratons to titrate the magnitude of stimulation, either low (5 μg/mL), medium (50 μg/mL), and high (200 μg/mL) stimulation.

Another experiment deals with anti-CD19 CAR+ T cells. As to the kind of experiment: Expansion of anti-CD19 CAR+ T cells following serial restimulation with irradiated K562-CD19 cells. To be noted: 1 μM, 4 rounds of stimulation, 12 days, two donors. How it is done:
The ability of anti-CD19 CAR+ T cells to expand ex vivo following repeated stimulations was assessed using methods substantially as described in Example 2. […] For each donor, cells were harvested every 3-5 days from each experimental condition in the wells and counted, and restimulated with new target cells using the same culture conditions after resetting cell number to initial seeding density for each round. A total of 4 rounds of stimulation during a 12 day culture period were carried out. For each round of stimulation, the total number of cells was determined, and the results were depicted as the fold-change of cell number after stimulation (FIG. 17A) or number of doublings compared to initial number (FIG. 17B).

Molecules are shown by their SMILES.

In the case of `O=C1CC[C@H](N2Cc3c(OCc4ccc(CN5CCOCC5)cc4)cccc3C2=O)C(=O)N1` [Compound 2, (S)-3-[4-(4-morpholin-4-ylmethyl-benzyloxy)-1-oxo-1,3-dihydro-isoindol-2-yl]-piperidine-2,6-dione], the “cytolytic function against Granta-519 tumor spheroids (tumor volume after 9 days)” value in [1] (0.001 μM or 0.01 μM concurrent) is recorded as “significantly increased cytolytic function”. The IFNγ in supernatant result in experiment [1] (5 days co-culture, concurrent treatment) is given as “statistically significant increase”. Further, in [1] (concurrent treatment), the “improvement in cytolytic function compared with Compound 1” value is “greater with concurrent treatment with Compound 2 than Compound 1”.

Regarding `Cc1nc2cccc(N)c2c(=O)n1C1CCC(=O)NC1=O` (stereo not shown) [Compound 1, 3-(5-amino-2-methyl-4-oxo-4H-quinazolin-3-yl)-piperidine-2,6-dione], in [2], the “surface markers CD25 and CD69” value is on record as “increase”; the “expression of the surrogate marker for CAR expression” value is given as “Increased expression”; the “expression of PD-1” value is on record as “increased”. Besides, the “expression of genes associated with a hypofunctional, exhausted state” value in the experiment on anti-CD19 CAR T cells is “partial reversal of expressed genes”. Besides, the “cytolytic activity (tumor cell number over time)” value in experiment [3] (0. and Compound 1 concurrent, 2.5:1 E:T) was “improved”. The “IFN-γ and TNF-α production” value in experiment [3] (24 hours, both cell lines) is “increased relative to vehicle control”. For the same molecule, in experiment [4], the “expression of CD28” value is “decreased in a dose-dependent manner”. In experiment [5], the “levels of IFNγ and IL-2” value is listed as “increased levels”. In addition, the “long term product performance” value in [6] (higher concentrations) was “detrimental”. For the same molecule, the “long-term proliferative potential of CAR-expressing T cells” value in [6] (prolonged treatment, 10 or 100 nM) is “increase”. The “cell counts of anti-CD19 CAR-expressing T cells” value in [7] (10 nM and 100 nM, after 24 days) is given as “higher than the untreated controls for two out of three donors”. In addition, the “number of doublings of CAR+ cells” value in experiment [7] (500 nM, rounds after 3-4 rounds of stimulation) is “lower than the untreated control groups”. Besides, in experiment [7], the “CD25 and LAG3 expression” value is “upregulated”; the “cytolytic activity after serial stimulation” value is listed as “increase the cytolytic activity”; the CCR7 expression result is reported as “generally decreased”. Besides, the PD-1 expression result in experiment [7] (all donors) is “downregulated”.

For the molecule `Nc1cccc2c1CN(C1CCC(=O)NC1=O)C2=O` (stereo not shown) [lenalidomide, 3-(4-amino-1-oxo-1,3-dihydro-2H-isoindol-2-yl)piperidine-2,6-dione], in experiment [2], the “surface markers CD25 and CD69” value was “increase”; the “expression of the surrogate marker for CAR expression” value is given as “Increased expression”; the “expression of PD-1” value is reported as “increased”. Further, the “expression of CD28” value in experiment [4] is “decreased in a dose-dependent manner”. Moreover, the “RPMI 8226 target cell viability without CAR T cells” value with RPMI-8226 (5 μM) was “did not directly influence target cell viability”. Moreover, the “cytolytic activity of the CAR+ T cells” value in the experiment with RPMI-8226 (5 μM preincubation during the seven day bead incubation) was “increased”. Also, the killing activity entry in the experiment with RPMI-8226 (lenalidomide present during the cell killing assay) was “did not substantially affect”. In the experiment with anti-BCMA CAR T cells (0.1 or 1.0 μM, all stimulation levels, CD4+ and CD8+ CAR T cells), the “percentage of IFN-γ+ and TNF-α+ intracellular staining” value is reported as “increased”. Also, the “percentage of IL-2+ CAR+ T cells” value with anti-BCMA CAR T cells (5-μg stimulation) is recorded as “increasing”. For the same molecule, the “percentage of IL-2+ CAR+ T cells” value with anti-BCMA CAR T cells (50-μg and 200-μg stimulation) is given as “decreasing”. Also, the “CAR T cytokine production” value in the experiment on anti-BCMA CAR T cells (absence of stimulation) is “no effect”. In the experiment on anti-BCMA CAR T cells (medium stimulation (50 μg/mL BCMA beads), 24 hours), the IFN-γ secreted entry is “donor-dependent increases”. The “cell expansion of anti-CD19 CAR+ T cells” value with anti-CD19 CAR+ T cells is given as “no change or only a minor effect”. Moreover, the “T cell potency activity compared with Compound 1” value in experiment [6] is “lower”. Also, the “CAR+ T cell counts” value in experiment [7] (100 nM) is recorded as “increased CAR+ T cell counts for two out of three donors”. In addition, in experiment [7] (2.5:1 E:T ratio, later rounds), the cell doublings entry was “lower cell doublings were only observed in two of the donors”. For the same molecule, in experiment [7] (10:1 E:T ratio, after 3-4 rounds, all donors), the cell doublings result is “decreased cell doublings”. Moreover, in experiment [7], the “CD25 and LAG3 expression” value is recorded as “upregulated”; the “cytolytic activity after serial stimulation” value is given as “increase the cytolytic activity”; the CCR7 expression result is recorded as “generally decreased”. For the same molecule, in experiment [7] (all donors), the PD-1 expression entry was “downregulated”.
